# Columns and labels:
# [1] = test system: staphylococcus epidermidis biofilm; experiment: staphylococcus epidermidis biofilm, optical density reading of turbidity; type: cell-based; conditions: 490 nm
# Experimental: (§1) Up to 8 different antibiotics or biocides can be tested by using 1 row (A-H) for each antimicrobial reagent. […] Rinse the remaining projections in PBS using a troughed vessel 20 and place the colonized projections into the 96 well antibiotic plate and incubate overnight at 37° C. […] (3) From the freshly sonicated plate remove 0.02 ml of the medium from each well and spot plate neat; and 0.025 ml from each well to prepare a serial dilution (10^−1 to 10^−6) and spot plate 0.02 ml (dilutions can be done in microtiter plates, one for each antibiotic). Place the plate containing the remaining medium and bacteria to incubate at 37° C., overnight. Day 4: Assay the sessile survival, by for example reading the plate incubated overnight at 490 nm or by counting the colonies on the plates to determine the actual number of surviving bacteria, or by using some other method known in the art.
# [2] = test system: staphylococcus epidermidis planktonic bacteria; experiment: staphylococcus epidermidis planktonic bacteria, optical density reading of turbidity; type: cell-based; conditions: 490 nm
# Experimental: (§2) Up to 8 different antibiotics or biocides can be tested by using 1 row (A-H) for each antimicrobial reagent. […] Rinse the remaining projections in PBS using a troughed vessel 20 and place the colonized projections into the 96 well antibiotic plate and incubate overnight at 37° C.
# [3] = test system: staphylococcus aureus biofilm; experiment: staphylococcus aureus biofilm on projections, antibiotic treatment, manual cfu count; type: cell-based
# Experimental: Up to 8 different antibiotics or biocides can be tested by using 1 row (A-H) for each antimicrobial reagent. […] Rinse the remaining projections in PBS using a troughed vessel 20 and place the colonized projections into the 96 well antibiotic plate and incubate overnight at 37° C. […] (3) From the freshly sonicated plate remove 0.02 ml of the medium from each well and spot plate neat; and 0.025 ml from each well to prepare a serial dilution (10^-1 to 10^-6) and spot plate 0.02 ml (dilutions can be done in microtiter plates, one for each antibiotic). Place the plate containing the remaining medium and bacteria to incubate at 37° C., overnight. Day 4: Assay the sessile survival, by for example reading the plate incubated overnight at 490 nm or by counting the colonies on the plates to determine the actual number of surviving bacteria, or by using some other method known in the art. Several different conventional methods may be used to count the bacteria. It may be done by incubating the sonicated bacteria, taking serial dilutions and visually counting the colony forming units, or automated methods may be used, as for example using an optical reader to determine optical density. […] In the case of using vital dye technology, the biofilm need not be further incubated. In a further embodiment, the assay may be carried out by sonicating the cells until they lyse and release ATP and then adding luciferase to produce a mechanically readable light output. In a still further embodiment, the assay may be carried out directly on the biofilm on the projections using a confocal microscope, although it should be considered that this is difficult to automate. […] Examples are given to show a comparison between counts of planktonic bacteria and counts of sessile bacteria for the same growth conditions. […] The antibiotic was applied to the wells 2-12 of the rows A-G of a 96 well plate as follows: well 2: no antibiotic, well 3: 1000 μg/mL, well 4: 500 μg/mL . . . well 12: 2 μg/mL.
# staph. aureus biofilm = experiment: staph. aureus biofilm, optical density reading of turbidity; type: cell-based, staphylococcus aureus; conditions: 490 nm
# Experimental: as §1
# [4] = test system: staph. aureus planktonic bacteria; experiment: staph. aureus planktonic bacteria, optical density reading of turbidity; type: cell-based, staphylococcus aureus; conditions: 490 nm
# Experimental: as §2
# Escherichia coli biofilm = experiment: Escherichia coli biofilm, optical density reading of turbidity; type: cell-based; conditions: 490 nm
# Experimental: as §1
# [5] = well 5 of doubling dilutions, well 3: 1000 μg/mL to well 12: 2 μg/mL
# [6] = well 6 of doubling dilutions, well 3: 1000 μg/mL to well 12: 2 μg/mL ([…] implied)
# [7] = well 7 of doubling dilutions, well 3: 1000 μg/mL to well 12: 2 μg/mL
# [8] = well 8 of doubling dilutions, well 3: 1000 μg/mL to well 12: 2 μg/mL
# [9] = well 9 of doubling dilutions, well 3: 1000 μg/mL to well 12: 2 μg/mL
# [10] = well 10 of doubling dilutions, well 3: 1000 μg/mL to well 12: 2 μg/mL ([…] implied)
# [11] = well 11 of doubling dilutions, well 3: 1000 μg/mL to well 12: 2 μg/mL
structure (smiles),measurement,setting,value
"CC(C)(O/N=C(\C(=O)N[C@@H]1C(=O)N2C(C(=O)[O-])=C(C[n+]3ccccc3)CS[C@H]12)c1csc(N)n1)C(=O)O [F, ceftazidine]","optical density reading of turbidity, staphylococcus epidermidis biofilm",[1]; well 3: 1000 μg/mL antibiotic,.897
same,"optical density reading of turbidity, staphylococcus epidermidis biofilm",[1]; well 4: 500 μg/mL antibiotic,.888
same,"optical density reading of turbidity, staphylococcus epidermidis biofilm",[1]; [5],1.013
same,"optical density reading of turbidity, staphylococcus epidermidis biofilm",[1]; [6],.855
same,"optical density reading of turbidity, staphylococcus epidermidis biofilm",[1]; [7],.992
same,"optical density reading of turbidity, staphylococcus epidermidis biofilm",[1]; [8],.903
same,"optical density reading of turbidity, staphylococcus epidermidis biofilm",[1]; [9],.920
same,"optical density reading of turbidity, staphylococcus epidermidis biofilm",[1]; [10],.850
same,"optical density reading of turbidity, staphylococcus epidermidis biofilm",[1]; [11],.843
same,"optical density reading of turbidity, staphylococcus epidermidis biofilm",[1]; well 12: 2 μg/mL antibiotic,.902
same,"optical density reading of turbidity, staphylococcus epidermidis planktonic bacteria",[2]; well 3: 1000 μg/mL antibiotic,.359
same,"optical density reading of turbidity, staphylococcus epidermidis planktonic bacteria",[2]; well 4: 500 μg/mL antibiotic,.383
same,"optical density reading of turbidity, staphylococcus epidermidis planktonic bacteria",[2]; [5],.397
same,"optical density reading of turbidity, staphylococcus epidermidis planktonic bacteria",[2]; [6],.410
same,"optical density reading of turbidity, staphylococcus epidermidis planktonic bacteria",[2]; [7],.466
same,"optical density reading of turbidity, staphylococcus epidermidis planktonic bacteria",[2]; [8],.540
same,"optical density reading of turbidity, staphylococcus epidermidis planktonic bacteria",[2]; [9],.615
same,"optical density reading of turbidity, staphylococcus epidermidis planktonic bacteria",[2]; [10],.627
same,"optical density reading of turbidity, staphylococcus epidermidis planktonic bacteria",[2]; [11],.694
same,"optical density reading of turbidity, staphylococcus epidermidis planktonic bacteria",[2]; well 12: 2 μg/mL antibiotic,.853
same,"manually counted cfu, staphylococcus aureus biofilm",[3]; well 3: 1000 μg/mL antibiotic,0 cfu
same,"manually counted cfu, staphylococcus aureus biofilm",[3]; well 4: 500 μg/mL antibiotic,1.0 × 10^2 cfu
same,"manually counted cfu, staphylococcus aureus biofilm",[3]; [5],0 cfu
same,"manually counted cfu, staphylococcus aureus biofilm",[3]; [6],1.0 × 10^2 cfu
same,"manually counted cfu, staphylococcus aureus biofilm",[3]; [7],50 cfu
same,"manually counted cfu, staphylococcus aureus biofilm",[3]; [8],0 cfu
same,"manually counted cfu, staphylococcus aureus biofilm",[3]; [9],0 cfu
same,"manually counted cfu, staphylococcus aureus biofilm",[3]; [10],1.0 × 10^5 cfu
same,"manually counted cfu, staphylococcus aureus biofilm",[3]; [11],4.0 × 10^5 cfu
same,"manually counted cfu, staphylococcus aureus biofilm",[3]; well 12: 2 μg/mL antibiotic,9.0 × 10^5 cfu
same,"optical density reading of turbidity, staph. aureus biofilm",staph. aureus biofilm; well 3: 1000 μg/mL antibiotic,.779
same,"optical density reading of turbidity, staph. aureus biofilm",staph. aureus biofilm; well 4: 500 μg/mL antibiotic,.830
same,"optical density reading of turbidity, staph. aureus biofilm",staph. aureus biofilm; [5],.777
same,"optical density reading of turbidity, staph. aureus biofilm",staph. aureus biofilm; [6],.739
same,"optical density reading of turbidity, staph. aureus biofilm",staph. aureus biofilm; [7],.719
same,"optical density reading of turbidity, staph. aureus biofilm",staph. aureus biofilm; [8],.840
same,"optical density reading of turbidity, staph. aureus biofilm",staph. aureus biofilm; [9],.806
same,"optical density reading of turbidity, staph. aureus biofilm",staph. aureus biofilm; [10],.882
same,"optical density reading of turbidity, staph. aureus biofilm",staph. aureus biofilm; [11],.924
same,"optical density reading of turbidity, staph. aureus biofilm",staph. aureus biofilm; well 12: 2 μg/mL antibiotic,.916
same,"optical density reading of turbidity, staph. aureus planktonic bacteria",[4]; well 3: 1000 μg/mL antibiotic,.073
same,"optical density reading of turbidity, staph. aureus planktonic bacteria",[4]; well 4: 500 μg/mL antibiotic,.076
same,"optical density reading of turbidity, staph. aureus planktonic bacteria",[4]; [5],.081
same,"optical density reading of turbidity, staph. aureus planktonic bacteria",[4]; [6],.079
same,"optical density reading of turbidity, staph. aureus planktonic bacteria",[4]; [7],.076
same,"optical density reading of turbidity, staph. aureus planktonic bacteria",[4]; [8],.079
same,"optical density reading of turbidity, staph. aureus planktonic bacteria",[4]; [9],.078
same,"optical density reading of turbidity, staph. aureus planktonic bacteria",[4]; [10],.111
same,"optical density reading of turbidity, staph. aureus planktonic bacteria",[4]; [11],.564
same,"optical density reading of turbidity, staph. aureus planktonic bacteria",[4]; well 12: 2 μg/mL antibiotic,.717
same,"optical density reading of turbidity, Escherichia coli biofilm",Escherichia coli biofilm; well 3: 1000 μg/mL antibiotic,.121
same,"optical density reading of turbidity, Escherichia coli biofilm",Escherichia coli biofilm; well 4: 500 μg/mL antibiotic,.123
same,"optical density reading of turbidity, Escherichia coli biofilm",Escherichia coli biofilm; [5],1.158
same,"optical density reading of turbidity, Escherichia coli biofilm",Escherichia coli biofilm; [6],.121
same,"optical density reading of turbidity, Escherichia coli biofilm",Escherichia coli biofilm; [8],.120
same,"optical density reading of turbidity, Escherichia coli biofilm",Escherichia coli biofilm; [9],.123
same,"optical density reading of turbidity, Escherichia coli biofilm",Escherichia coli biofilm; [10],1.152
same,"optical density reading of turbidity, Escherichia coli biofilm",Escherichia coli biofilm; [11],1.249
same,"optical density reading of turbidity, Escherichia coli biofilm",Escherichia coli biofilm; well 12: 2 μg/mL antibiotic,1.268

# From patent publication US7041470B2, “Method of assaying the susceptibility of biofilms to anti-microbial agents” (University Technologies International, Inc., priority 1996, dated 2006)
